Experimental data published in US5455356A, “Fungicidal 1-aryl-1-[α-(triazolyl)alkyl]-1-silacycloalkanes and their preparation methods” (priority 1993, dated 1995).

Legend:
Format in all cases: cell-based
[1] = test system: GC; assay: In vitro mycelial/spore growth on potato-sucrose-agar, percent disease control (GC); conditions: read-out: % controlled, GC; for inhibition of growth at 50 ppm: GC
Protocol: (§1) The compounds of this invention were dissolved respectively in acetone in an amount equal to 10% of the final volume and then in purified water at the concentration of 100 ppm and 50 ppm.
(§2) Each of the solution was mixed with potato-sucrose-agar medium in 6" petri dish and one of the fungi was spotted at the center of the dish. The dish was incubated in growth room for several days. The percent disease control was derived from the radii of spore growth. The screening tests in vitro condition are well-known to those skilled in the art.
(§3) The following fungi were used for the screening.

[2] = test system: Fusarium moniliforme; assay: In vitro mycelial/spore growth on potato-sucrose-agar, percent disease control (FM); conditions: Fusarium verticillioides, Fusarium moniliforme, read-out: % controlled, FM
Protocol: as §1, §2, §3
8) Fu. mo.; Fusarium moniliforme

[3] = test system: Botritis cinerea; assay: In vitro mycelial/spore growth on potato-sucrose-agar, percent disease control (BC); conditions: read-out: % controlled, BC
Protocol: as §1, §2, §3
10) Bo. ci.; Botritis cinerea

[4] = test system: Botryosphaeri; assay: In vitro mycelial/spore growth on potato-sucrose-agar, percent disease control (BD); conditions: read-out: % controlled, BD
Protocol: as §1, §2, §3
4) Bo. do (Ma); Botryosphaeri

[5] = test system: Rhizopus sp.; assay: In vitro mycelial/spore growth on potato-sucrose-agar, percent disease control (RS, second column); conditions: read-out: % controlled, RS; for inhibition of growth at 50 ppm: Rhizopus sp.; for inhibition of growth at 200 ppm: Rhizopus
Protocol: as §1, §2, §3
9) Rhi. sp.; Rhizopus sp.

[6] = test system: Phytophthora capsisi; assay: In vitro mycelial/spore growth on potato-sucrose-agar, percent disease control (PC); conditions: read-out: % controlled, PC
Protocol: as §1, §2, §3
2) Phy. ca.; Phytophthora capsisi

[7] = test system: Rhizoctonia solani; assay: In vitro mycelial/spore growth on potato-sucrose-agar, percent disease control (RS, first column); conditions: read-out: % controlled, RS
Protocol: as §1, §2, §3
7) Rhi. so.; Rhizoctonia solani

[8] = test system: Pyricalaria oryzae; assay: In vitro mycelial/spore growth on potato-sucrose-agar, percent disease control (PO); conditions: read-out: % controlled, PO
Protocol: as §1, §2, §3
6) Py. or.; Pyricalaria oryzae

| Compound | inhibition of growth at 50 ppm [1] | inhibition of growth at 200 ppm [1] | inhibition of growth at 50 ppm [2] | inhibition of growth at 200 ppm [2] | inhibition of growth at 50 ppm [3] | inhibition of growth at 200 ppm [3] | inhibition of growth at 50 ppm [4] | inhibition of growth at 200 ppm [4] | inhibition of growth at 50 ppm [5] | inhibition of growth at 200 ppm [5] | inhibition of growth at 50 ppm [6] | inhibition of growth at 200 ppm [6] | inhibition of growth at 50 ppm [7] | inhibition of growth at 200 ppm [7] | inhibition of growth at 50 ppm [8] | inhibition of growth at 200 ppm [8] |
| --- | --- | --- | --- | --- | --- | --- | --- | --- | --- | --- | --- | --- | --- | --- | --- | --- |
| CC(n1cncn1)[Si]1(c2ccc(F)cc2F)CCCCC1 (stereo not drawn) [1-(2,4-difluorophenyl)-1-[α-(1H-1,2,4-triazole-1-yl)ethyl]-1-silacyclohexane] | 100% | 100% | 100% | 100% | 100% | 100% | 100% | 100% | 53% | 79% | 82% | 100% | 96% | 100% | 100% | 100% |
| Fc1ccc([Si]2(Cn3cncn3)CCCCC2)cc1 [1-(4-fluorophenyl)-1-(1H-1,2,4-triazole-1-yl)methyl-1-silacyclohexane] | 100% | 100% | 100% | 100% | 100% | 100% | 100% | 100% | 75% | 93% | 47% | 74% | 55% | 59% | 96% | 100% |
| CCOc1ccc([Si]2(C(C)n3cncn3)CCCC2)cc1 (stereo not drawn) [1-(4-ethoxyphenyl)-1-[α-(1H-1,2,4-triazole-1-yl)ethyl]-1-silacyclopentane] | 100% | 100% | 93% | 100% | 79% | 94% | 70% | 95% | 63% | 90% | 43% | 91% | 100% | 100% | 100% | 100% |
| CC(n1cncn1)[Si]1(c2ccc(F)cc2)CCCCC1 (stereo not drawn) [1-(4-fluorophenyl)-1-[α-(1H-1,2,4-triazole-1-yl)ethyl]-1-silacyclohexane] | 100% | 100% | 100% | 100% | 100% | 100% | 100% | 100% | 76% | 86% | 77% | 85% | 100% | 100% | 100% | 100% |
| CC(n1cncn1)[Si]1(c2ccc(Cl)cc2Cl)CCCC1 (stereo not drawn) [1-(2,4-dichlorophenyl)-1-[α-(1H-1,2,4-triazole-1-yl)ethyl)-1-silacyclopentane] | 100% | 100% | 100% | 100% | 92% | 100% | 95% | 100% | 68% | 94% | 83% | 96% | 69% | 87% | 100% | 100% |
| Clc1ccc([Si]2(Cn3cncn3)CCCCC2)c(Cl)c1 [1-(2,4-dichlorophenyl)-1-(1H-1,2,4-triazole-1-yl)methyl-1-silacyclohexane] | 100% | 100% | 100% | 100% | 97% | 100% | 98% | 100% | 50% | 72% | 65% | 87% | 20% | 50% | 100% | 100% |
| COc1ccc([Si]2(Cn3cncn3)CCCC2)cc1 [1-(4-methoxyphenyl)-1-(1H-1,2,4-triazole-1-yl)methyl-1-silacyclopentane] | 100% | 100% | 70% | 80% | 72% | 77% | 75% | 79% | 64% | 75% | 41% | 100% | 74% | 100% | 100% | 100% |
| FC(F)(F)c1ccc([Si]2(Cn3cncn3)CCCCC2)cc1 [1-(4-trifluoromethyl)-1-(1H-1,2,4-triazole-1-yl)methyl-1-silacyclohexane] | 100% | 100% | 82% | 98% | 93% | 100% | 100% | 100% | 63% | 76% | 75% | 99% | 54% | 80% | 100% | 100% |
| COc1ccc([Si]2(C(C)n3cncn3)CCCCC2)cc1 (stereo not drawn) [1-(4-methoxoyphenyl)-1-[α-(1H-1,2,4-triazole-1-yl)ethyl]-1-silacyclohexane] | 100% | 100% | 94% | 98% | 64% | 100% | 92% | 100% | 49% | 60% | 55% | 85% | 93% | 100% | 100% | 100% |
| Clc1ccc([Si]2(Cn3cncn3)CCCC2)cc1 [1-(4-chlorophenyl)-1-(1H-1,2,4-triazole-1-yl)methyl-1-silacyclopentane] | 100% | 100% | 100% | 100% | 100% | 100% | 70% | 99% | 67% | 75% | 15% | 98% | 95% | 100% | 100% | 100% |
| COc1ccc([Si]2(C(C)n3cncn3)CCCC2)cc1 (stereo not drawn) [1-(4-methoxyphenyl)-1-[α-(1H-1,2,4-triazole-1-yl)ethyl]-1-silacyclopentane] | 100% | 100% | 94% | 99% | 81% | 95% | 71% | 96% | 59% | 80% | 50% | 90% | 100% | 100% | 100% | 100% |
| CC(n1cncn1)[Si]1(c2ccc(F)cc2F)CCCC1 (stereo not drawn) [1-(2,4-difluorophenyl)-1-[α-(1H-1,2,4-triazole-1-yl)ethyl]-1-silacyclopentane] | 100% | 100% | 100% | 100% | 100% | 100% | 100% | 100% | 78% | 87% | 45% | 94% | 79% | 100% | 100% | 100% |
